Each structure is given as a SMILES string. Marks after values point to notes of the source that are not given here.

Assay [1] concerns THP-1 derived macrophage cells. The experiment in a line: Macrophage polarization by flow cytometry (CD11b, CD80, CD163 MFI). The class given is cell-based, human. The following applies: saponin 3 µg/mL, 24 h, PMA-differentiated THP-1, mean ± SD, n = 3. As to the method: To differentiate THP-1 cells into M0-THP-1, cells were seeded at an initial concentration of 1 × 10^6 cells/mL in 6-well plates (Corning, USA) and treated with 15 ng/mL phorbol 12-myristate 13—acetate (PMA, Sigma USA). Then incubate at 5% CO2, 37 °C for 48 h[24]. To evaluate the potential of saponins with/without infectious bronchitis virus (IBV) D274 antigen on macrophage polarization, THP-1 cells were treated with saponins at 3 µg/mL and then incubated for 24 h with or without 4 µL of inactivated IBV D274 antigens (final titer of 1 HA). […] Based on the results of our previous research, the saponin concentration was selected as a non-cytotoxic concentration. At the end of the incubation period, the cells were collected by trypsinization and washed three times with PBS. Following, 1 µL of PE anti-human CD80 (Biolegend, CA), FITC anti-human CD163 (Biolegend, CA), and FITC anti-human CD11b (Biolegend, CA) antibodies were added into the cells pellet and incubated for 45 min at room temperature in the dark. The cells pellets underwent two PBS washes following incubation. Finally, the cells were subsequently analyzed by flow cytometry (BD Accuri, C5). 1 × 10^4 cells were counted for each sample group using flow cytometry. All data are the results of at least three independent experiments carried out in triplicate. Data are presented as mean ± standard error of the mean (SEM) of samples. The untreated stained macrophage cells with anti-human CD80, FITC anti-human CD163, and FITC anti-human CD11b were compared with the results of treated cells to obtain from M0 polarization to M1 and M2 or both.
Figure 2 (a) Saponins without antigen treatment, (b) Saponins treated with antigen. THP-1 cells were treated with 15 ng/ml PMA and 3 µg/ml saponins and 1 HA titer of IBV D274 induced in the saponins with antigen group for 24 h incubation. The macrophage polarization was determined with flow cytometry. Each value represents the mean ± standard deviation of three independents measurements. (P < 0.05*, P < 0.01**, P < 0.001***).
(In general: Flow cytometry measures light scatter and fluorescence of single cells or particles in a stream.)

In assay [2] the test system is THP-1 originated-macrophage. Nature of the assay: MTT cytotoxicity on THP-1 originated macrophages. The class given is cell-based, human. The following applies: mean ± standard deviation, n = 3, – = Not detected.
Assay [3] relates to A549 human lung adenocarcinoma cell line. The experiment in a line: MTT cytotoxicity on A549. In kind it is cell-based. The following applies: mean ± standard deviation, n = 3, – = Not detected. As to the method: (§1) The human leukemia monocyte cell line (THP-1), human lung adenocarcinoma cell line (A549), human breast cancer cells (MDA-MB231), human prostate adenocarcinoma cells (PC3), human malignant glioma cell line (U87MG), human cervical gland carcinoma cells (HeLa), human hepatocellular carcinoma cells (HEP-G2) and normal human lung fibroblast cells (CCD-34-LU) as a healthy cell line in our stock used in this study were purchased from American Type Culture Collection (ATCC). THP-1 cells were cultured in Roswell Park Memorial Institute (RPMI 1640) medium and MDA-MB231, PC3, U87 MG, HeLa, HEP-G2, and CCD-34-LU cells cultivated in Dulbecco’s Modified Eagle’s Medium/Nutrient Mixture F-12 (DMEM/F12) (Gibco, USA) medium supplemented with 10% FBS (Gibco, USA), 100U/mL of penicillin 100 µg/mL of streptomycin (Gibco, USA), and 2 mM L-glutamine (Gibco, USA).
(§2) Cytotoxicity of saponins (1–4) and their prosapogenins (2a–4a) were tested against A549, MDA-MB-231, PC-3, U87MG, HeLa, HepG-2 cancer cells and CCD34-Lu healthy cell line using MTT [3-(4,5-dimethylthiazole-2-yl)-2,5-diphenyltetrazolium bromide)] assay (Acros Organics, New Jersey, USA)[11], [23]. For this purpose, 1 × 10^5 cells/mL of all the cell lines were seeded in 96-well plates (Corning, USA) and cultivated in the at 37 °C overnight. After the incubation, the cells were incubated with different concentrations of saponins (50, 5, and 0.5 µg/mL), and doxorubicin (Sigma, USA) (20, 2, and 0.2 µg/mL) for 48 h at 37 °C. Then, the MTT was added as 20 μL (from the stock concentration of 2.5 mg/mL) to all wells and further incubated for 4 h at 37 °C. Following the incubation, the medium was removed and 150 µL DMSO was added to dissolve the formed formazan crystals. After the formazan crystals were completely dissolved, the optical density (OD) was measured at 570 nm with an UV/Vis microplate spectrophotometer (Thermo Fisher Scientific, USA). All data are the results of at least three independent experiments carried out in triplicate. Data are presented as mean ± standard error of the mean (SEM) of samples. The IC50 value was calculated using the GraphPad Prism 8 (USA) program based on the calculated percent viability values and absorbance values. The percentage of viability was determined by Eq. (1):1 %Viablecells=absorbanceoftreatedcells-absorbanceofblank/absorbanceofcontrol-absorbanceofblank×100

The subject of assay [4] is PC-3 human prostate adenocarcinoma cells. Nature of the assay: MTT cytotoxicity on PC-3. In kind it is cell-based. The following applies: 48 h, mean ± standard deviation, n = 3, – = Not detected. On the procedure:
as §1, §2

Assay [5] concerns MDA-MB-231 human breast cancer cells. Nature of the assay: MTT cytotoxicity on MDA-MB-231. The class given is cell-based. The settings on record: mean ± standard deviation, n = 3, – = Not detected. As to the method:
as §1, §2

Assay [6] relates to HeLa human cervical gland carcinoma cells. Nature of the assay: MTT cytotoxicity on HeLa. In kind it is cell-based. The settings on record: 48 h, mean ± standard deviation, n = 3, – = Not detected. On the procedure:
as §1, §2

In assay [7] the test system is CCD-34Lu normal human lung fibroblast cells. Nature of the assay: MTT cytotoxicity on CCD-34Lu healthy cells. In kind it is cell-based. The settings on record: 48 h, mean ± standard deviation, n = 3, – = Not detected. As to the method:
as §1, §2

The subject of assay [8] is U87MG human malignant glioma cell line. Nature of the assay: MTT cytotoxicity on U87MG. The class given is cell-based. The settings on record: 48 h, mean ± standard deviation, n = 3, – = Not detected. As to the method: as §1, §2
For assay [9], the system named is HepG-2 human hepatocellular carcinoma cells. The experiment in a line: MTT cytotoxicity on HepG-2. The class given is cell-based. The settings on record: mean ± standard deviation, n = 3, – = Not detected. As to the method: as §1, §2
[10] abbreviates: with inactivated IBV D274 antigen (1 HA).

With `C[C@@H]1O[C@@H](O[C@H]2[C@H](O[C@H]3CC[C@@]4(C)[C@@H](CC[C@]5(C)[C@@H]4CC=C4[C@@H]6CC(C)(C)CC[C@]6(C(=O)O)CC[C@]45C)[C@]3(C)CO)O[C@H](CO)[C@H](O)[C@@H]2O)[C@H](O)[C@H](O)[C@H]1O` [Compound 4a, 3-O-α-L-rhamopyranosyl-(1 → 2)-β-D-galactopyranosyl hederagenin], the “MFI of CD 11b (M0 marker)” value in assay [1] (setting [10]) is listed as 30,124.70 ± 913.74; in [1] (without antigen), 30,031.76 ± 1486.58. For the same compound, the “MFI of CD80 (M1 marker)” value is 4604.40 ± 128.49 in assay [1] (setting [10]) and 4,552.00 ± 947.76 in assay [1] (without antigen). For the same compound, the 50% inhibitory concentration (IC50) in assay [2] (48 h) is 35.7 ± 4.9 µM; in [3] (48 h), 8.13 ± 0.01 µM; in assay [4], more than 64 µM; in [5] (48 h) it was 8.43 ± 0.15 µM; in assay [6], 16.3 ± 4.75 µM; in assay [7] it was more than 64 µM. The IC50 in [8] and in [9] (48 h) was more than 64 µM in each case.
Regarding `C[C@@H]1O[C@@H](O[C@H]2[C@H](O[C@H]3CC[C@@]4(C)C(CC[C@]5(C)C4CC=C4C6CC(C)(C)CC[C@]6(C(=O)O)CC[C@]45C)C3(C)C)O[C@H](CO)[C@H](O)[C@@H]2O)[C@H](O)[C@H](O)[C@H]1O` (stereo partly drawn) [Compound 2a, 3-O-α-L-rhamopyranosyl-(1 → 2)-β-D-galactopyranosyl oleanoic acid], the “MFI of CD 11b (M0 marker)” value in [1] (setting [10]) is on record as 28,297.32 ± 808.92; in assay [1] (without antigen) it was 26,304.81 ± 2370.42. The “MFI of CD80 (M1 marker)” value in assay [1] (setting [10]) is on record as 4727.00 ± 221.96; in assay [1] (without antigen), 3,962.53 ± 246.09. The “MFI of CD163 (M2 marker)” value in [1] (setting [10]) is given as 7408.64 ± 224.16. Moreover, the IC50 in assay [2] (Homo sapiens, THP-1, 48 h) is 37.3 ± 8.17 µM; in assay [3] (Homo sapiens, A549, 48 h), 20.8 ± 0.46 µM; in assay [4] (Homo sapiens), more than 65.4 µM; in assay [5] (Homo sapiens, MDA-MB-231, 48 h), 24.3 ± 2.65 µM; in assay [6] (Homo sapiens, HeLa), more than 65.4 µM; in [7] (Homo sapiens, Fibroblast), more than 65.4 µM. Besides, the IC50 is more than 65.4 µM in assay [8] (Homo sapiens, U-87 MG) and more than 65.4 µM in [9] (Homo sapiens, HepG2, 48 h).
In the case of `C[C@@H]1O[C@@H](O[C@H]2[C@H](O[C@H]3CC[C@@]4(C)C(CC[C@]5(C)C4CC=C4C6CC(C)(C)CC[C@]6(C(=O)O[C@@H]6O[C@H](CO[C@@H]7O[C@H](CO)[C@@H](O)[C@H](O)[C@H]7O)[C@@H](O)[C@H](O)[C@H]6O)CC[C@]45C)[C@]3(C)CO)O[C@H](CO)[C@H](O)[C@@H]2O)[C@H](O)[C@H](O)[C@H]1O` (stereo partly drawn) [Compound 4, 3-O-α-L-rhamnopyranosyl-(1 → 2)-β-D-galactopyranosyl-hederagenin-28-O-β-D-glucopyranosyl-(1 → 6)-β-D-glucopyranosyl ester], the “MFI of CD 11b (M0 marker)” value in [1] (setting [10]) is 32,925.30 ± 947.75; in assay [1] (without antigen), 27,324.70 ± 2398.39. Besides, the “MFI of CD80 (M1 marker)” value in assay [1] (setting [10]) is recorded as 4593.32 ± 951.60; in assay [1] (without antigen), 4,380.00 ± 169.38. In addition, the entries for the “MFI of CD163 (M2 marker)” value in [1] (setting [10]) and in assay [1] (without antigen) were 8203.00 ± 246.09** and 6,755.64 ± 206.67**, respectively. In addition, the IC50 is more than 45.2 µM in assay [2] (Homo sapiens, THP-1, 48 h); more than 45.2 µM in assay [3] (Homo sapiens, A549, 48 h); more than 45.2 µM in assay [4] (Homo sapiens); more than 45.2 µM in [5] (Homo sapiens, MDA-MB-231, 48 h); more than 45.2 µM in assay [6] (Homo sapiens, HeLa); more than 45.2 µM in assay [7] (Homo sapiens, Fibroblast). The half-maximal inhibitory concentration (IC50) in assay [8] (Homo sapiens, U-87 MG) is more than 45.2 µM; in assay [9] (Homo sapiens, HepG2, 48 h) it was more than 45.2 µM.

In general, IC50 refers to the midpoint of a concentration-inhibition curve.

Source of the values: publication PMC10560666, “Four new triterpene saponins from Cephalaria speciosa and their potent cytotoxic and immunomodulatory activities” (Scientific Reports, 2023).
